According to PubChem BioAssay (NCI):
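Step 1: Grow cells in 96-well plates. Step 2: Expose to compound for 48 hours at 5 concentrations. Step 3: Interpolate endpoints linearly; if unreached, use highest concentration. Here, GI50 denotes the concentration required for 50% inhibition of growth. Definition used: TGI = concentration required for complete inhibition of growth.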

Columns and labels:
Test in all cases: inhibition of tumour cell growth, NCI panel, 48 h; in the data active = GI50 below about 0.43 µM; inactive = the rest
[1] = test system: OVCAR-5 ovarian
[2] = test system: SK-MEL-5 melanoma
[3] = test system: A498 renal
[4] = test system: SK-OV-3 ovarian
[5] = test system: RXF 393 renal
[6] = test system: NCI-H522 lung
[7] = test system: SNB-19 CNS
[8] = test system: HCC-2998 colon
[9] = test system: HOP-62 NSCLC

Cc1cc(Nc2ccc(NC(=O)c3ccc(Nc4ccnc5ccccc45)cc3)cc2)nc(N)n1
9.82 µM: TGI [5]
> 100 µM: TGI [3]
37.5 µM: TGI [1]
54.8 µM: TGI [4]
49.9 µM: TGI [2]
inactive: GI50 [1] 3.4 µM | GI50 [2] 5.23 µM | GI50 [3] 5.13 µM | GI50 [4] 7.15 µM | GI50 [5] 2760 nM

c1ccc2cc(-c3cc4ccccc4s3)ccc2c1
> 100 µM: TGI [1] | TGI [2] | TGI [6] | TGI [7] | TGI [3] | TGI [4] | TGI [8] | TGI [9]

CC(C)(C)NNC(=O)CCn1[nH]c(=O)c(Cl)c(Cl)c1=O
> 100 µM: TGI [1] | TGI [6] | TGI [7] | TGI [3] | TGI [4] | TGI [8] | TGI [5] | TGI [9]

O=C1CCC(Cl)=CC2CCCN12 (configuration not stated)
> 100 µM: TGI [1] | TGI [2] | TGI [7] | TGI [3] | TGI [4] | TGI [8] | TGI [5] | TGI [9]

CC1(C)COC(C2(C)C(=O)C=C(c3ccccc3)c3ccccc32)=N1 (configuration not stated)
> 100 µM: TGI [2] | TGI [6] | TGI [7] | TGI [5] | TGI [9]
47.9 µM: TGI [4]

CC(=O)CCn1ncc(Cl)c(Cl)c1=O
21.9 µM: TGI [8]
33.2 µM: TGI [1]
42.9 µM: TGI [3]
33.5 µM: TGI [2]
32.9 µM: TGI [7] | TGI [5]
35.4 µM: TGI [9]

CC(C)N(C(=O)C12C3C4C1C1C4(C#N)C3C12C#N)C(C)C (configuration not stated)
> 100 µM: TGI [1] | TGI [2] | TGI [7] | TGI [3] | TGI [4] | TGI [8] | TGI [5] | TGI [9]

O=CCC1CCCCC1
> 100 µM: TGI [1] | TGI [2] | TGI [6] | TGI [7] | TGI [3] | TGI [4] | TGI [5] | TGI [9]

NC(N)=N/N=C/c1c(-c2ccsc2)nc2sccn12
30.3 µM: TGI [1] | TGI [4]
40 µM: TGI [5]
32.6 µM: TGI [7]
inactive: GI50 [1] 16.6 µM | GI50 [2] 14.4 µM | GI50 [6] 12.2 µM | GI50 [7] 16.7 µM | GI50 [3] 17.5 µM | GI50 [4] 14.3 µM | GI50 [5] 17900 nM | GI50 [9] 14.3 µM
31.8 µM: TGI [3]
27.4 µM: TGI [9]
28.8 µM: TGI [2]
30.5 µM: TGI [6]

COc1ccc2occ(CCC(=O)O)c2c1
> 100 µM: TGI [2] | TGI [7] | TGI [3] | TGI [4] | TGI [8] | TGI [5] | TGI [9]

O=C1CCC2(c3ccc(Cl)cc3)Nc3ncccc3N12 (configuration not stated)
> 100 µM: TGI [1] | TGI [2] | TGI [6] | TGI [3] | TGI [4] | TGI [8] | TGI [5] | TGI [9]

CCC12CCCN(Cc3ccccc3)C1c1c(n(C)c3ccccc13)CC2 (configuration not stated)
> 253 µM: TGI [7] | TGI [4] | TGI [8] | TGI [5] | TGI [9]
184 µM: TGI [2]
220 µM: TGI [6]

CCC(=O)CC(=O)CCC(=O)Nc1cc(C)ccc1C
> 100 µM: TGI [2] | TGI [6] | TGI [7] | TGI [3] | TGI [4] | TGI [5]

CCCCOC(=O)CNC(=O)OC/C=C/C#CC#C/C=C/COC(=O)NCC(=O)OCCCC
> 100 µM: TGI [1] | TGI [2] | TGI [6] | TGI [7] | TGI [3] | TGI [4] | TGI [8] | TGI [5] | TGI [9]
inactive: GI50 [1] > 100 µM | GI50 [2] > 100 µM | GI50 [6] > 100 µM | GI50 [7] > 100 µM | GI50 [3] > 100 µM | GI50 [4] > 100 µM | GI50 [8] > 100000 nM | GI50 [5] > 100000 nM | GI50 [9] > 100 µM

O=c1/c(=C/c2ccccc2[N+](=O)[O-])sc2nnc(-c3ccco3)n12
> 100 µM: TGI [1] | TGI [3] | TGI [4]
34.4 µM: TGI [2]
32.9 µM: TGI [6]
43.4 µM: TGI [8]
39.2 µM: TGI [9]
56.3 µM: TGI [7]
32.6 µM: TGI [5]

Cc1cn2c(=O)c3ncn(C4OC(CO)C(O)C4O)c3n(C)c2n1 (configuration not stated)
> 100 µM: TGI [1] | TGI [2] | TGI [6] | TGI [7] | TGI [3] | TGI [4] | TGI [8] | TGI [5]

C#CCOc1cccc(-c2ncc3cc(NC(=O)CCl)ccc3n2)c1
inactive: GI50 [2] 1.33 µM | GI50 [6] 1.16 µM | GI50 [7] 1.76 µM | GI50 [3] 13.2 µM | GI50 [4] 3.58 µM | GI50 [8] 1910 nM | GI50 [5] 1640 nM | GI50 [9] 2.02 µM
3.4 µM: TGI [8]
3.81 µM: TGI [9]
31 µM: TGI [3]
> 100 µM: TGI [4]
2.51 µM: TGI [6]
2.62 µM: TGI [2]
3.09 µM: TGI [5]
3.45 µM: TGI [7]

Cc1ccc(S(=O)(=O)N(C=O)N=C2CCN(Cc3ccccc3)CC2)cc1
> 100 µM: TGI [1] | TGI [2] | TGI [6] | TGI [7] | TGI [3] | TGI [4] | TGI [8] | TGI [5] | TGI [9]
